From patent US20250135006A1, “AMPHIPHILIC TLR7/8 ADJUVANTS AND USES THEREOF” (Pfizer Inc., priority 2023, published 2025)

How the values were obtained:
S. pneumoniae serotype 3 = assay type: in vivo, female Swiss-Webster mice; conditions: mouse
[1] = biological target: T1, human toll like receptor 8 (hTLR8) (Homo sapiens, UniProt Q9NR97); experiment: hTLR8 in-vitro functional assay (HEK-Blue hTLR8 SEAP reporter); assay type: cell-based; conditions: HEK-Blue hTLR8 cells, overnight incubation
T1 construct: host or cells: HEK293 (HEK-Blue hTLR8)
T1 sequence (Q9NR97 27-1041): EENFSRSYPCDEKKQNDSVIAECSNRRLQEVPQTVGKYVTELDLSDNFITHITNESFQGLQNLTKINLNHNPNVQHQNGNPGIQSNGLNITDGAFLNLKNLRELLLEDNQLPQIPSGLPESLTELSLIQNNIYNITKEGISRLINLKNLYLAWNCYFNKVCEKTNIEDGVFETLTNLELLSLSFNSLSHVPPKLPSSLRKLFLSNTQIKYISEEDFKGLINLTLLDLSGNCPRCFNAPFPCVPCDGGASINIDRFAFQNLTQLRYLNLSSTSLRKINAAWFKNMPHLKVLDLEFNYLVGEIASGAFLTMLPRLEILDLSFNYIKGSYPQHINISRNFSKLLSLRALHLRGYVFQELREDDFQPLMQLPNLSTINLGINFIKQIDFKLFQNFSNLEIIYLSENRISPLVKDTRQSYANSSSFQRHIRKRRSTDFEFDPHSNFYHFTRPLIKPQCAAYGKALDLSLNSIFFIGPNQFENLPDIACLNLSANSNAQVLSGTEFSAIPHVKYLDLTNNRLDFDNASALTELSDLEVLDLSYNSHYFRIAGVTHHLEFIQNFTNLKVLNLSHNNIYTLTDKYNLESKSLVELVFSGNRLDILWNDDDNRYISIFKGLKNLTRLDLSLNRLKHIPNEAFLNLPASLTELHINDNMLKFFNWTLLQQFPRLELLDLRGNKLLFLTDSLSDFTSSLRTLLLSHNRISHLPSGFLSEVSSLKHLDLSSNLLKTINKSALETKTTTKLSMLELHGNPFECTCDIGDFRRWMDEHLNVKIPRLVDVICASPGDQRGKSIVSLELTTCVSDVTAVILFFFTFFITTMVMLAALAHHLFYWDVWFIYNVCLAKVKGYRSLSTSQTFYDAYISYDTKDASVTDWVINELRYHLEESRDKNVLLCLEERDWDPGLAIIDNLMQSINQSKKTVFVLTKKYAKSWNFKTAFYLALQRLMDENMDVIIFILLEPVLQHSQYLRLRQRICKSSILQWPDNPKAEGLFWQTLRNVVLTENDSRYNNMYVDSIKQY

RSV A strain (M37) = experiment: In vivo immunogenicity with RSV antigen, RSV microneutralization assay; design: species or system female BALB/c mice; conditions: 0.5 μg bivalent RSV antigen alone or mixed with 2 nmol adjuvant, intramuscular days 0 and 21, sera day 35
Experimental: In two independent in vivo immunogenicity studies, female BALB/c mice were immunized intramuscularly twice three weeks apart (days 0 and 21) with 0.5 μg of RSV antigen alone or mixed with 2 nmol of Example 1 adjuvant (Compound 1). Sera were collected at day 35 to determine RSV neutralization antibody titers (nAb). The RSV antigen tested was bivalent comprising a RSV F Protein of Subtype A comprising the sequence of SEQ ID NO: 1 and SEQ ID NO: 2, as well as a RSV F Protein of Subtype B comprising the sequence of SEQ ID NO: 3 and SEQ ID NO: 4.
50% nAb responses against RSV A strain (M37) were measured by an RSV microneutralization assay at 2 weeks post dose 2.

[2] = biological target: T2, human toll like receptor 7 (hTLR7) (Homo sapiens, UniProt Q9NYK1); experiment: hTLR7 in-vitro functional assay (HEK-Blue hTLR7 SEAP reporter); assay type: cell-based; conditions: HEK-Blue hTLR7 cells, overnight incubation
T2 construct: host or cells: HEK293 (HEK-Blue hTLR7)
T2 sequence (Q9NYK1 27-1049): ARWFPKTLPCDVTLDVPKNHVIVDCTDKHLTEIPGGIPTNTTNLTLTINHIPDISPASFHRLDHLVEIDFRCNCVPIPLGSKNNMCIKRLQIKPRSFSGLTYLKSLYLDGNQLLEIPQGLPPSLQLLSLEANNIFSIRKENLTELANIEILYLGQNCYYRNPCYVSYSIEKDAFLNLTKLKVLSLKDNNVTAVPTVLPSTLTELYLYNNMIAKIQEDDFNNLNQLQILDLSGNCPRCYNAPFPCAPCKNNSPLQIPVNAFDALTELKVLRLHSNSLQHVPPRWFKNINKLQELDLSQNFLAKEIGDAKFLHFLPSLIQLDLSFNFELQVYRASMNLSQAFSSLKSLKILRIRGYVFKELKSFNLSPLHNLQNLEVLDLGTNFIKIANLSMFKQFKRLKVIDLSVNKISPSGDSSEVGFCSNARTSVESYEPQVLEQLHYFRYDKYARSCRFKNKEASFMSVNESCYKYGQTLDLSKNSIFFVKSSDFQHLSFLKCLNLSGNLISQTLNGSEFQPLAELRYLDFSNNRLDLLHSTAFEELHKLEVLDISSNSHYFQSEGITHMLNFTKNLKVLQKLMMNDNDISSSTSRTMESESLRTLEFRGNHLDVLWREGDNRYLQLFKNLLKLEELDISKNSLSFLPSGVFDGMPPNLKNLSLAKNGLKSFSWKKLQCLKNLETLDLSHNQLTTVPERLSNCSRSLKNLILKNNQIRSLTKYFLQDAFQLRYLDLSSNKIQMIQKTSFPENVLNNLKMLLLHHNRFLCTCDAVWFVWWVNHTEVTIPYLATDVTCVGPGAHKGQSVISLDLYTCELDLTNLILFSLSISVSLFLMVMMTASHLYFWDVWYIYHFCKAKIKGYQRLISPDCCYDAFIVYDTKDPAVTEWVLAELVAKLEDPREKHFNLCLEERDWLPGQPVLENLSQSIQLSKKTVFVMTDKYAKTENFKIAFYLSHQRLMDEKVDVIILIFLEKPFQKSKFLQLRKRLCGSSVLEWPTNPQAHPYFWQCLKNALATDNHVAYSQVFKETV

SMILES: CCCCc1nc2c(N)nc3cc(CCCN4CCN(C(=O)CCOCCOCCOCCOCCOCCOCCOCCOCCOCCOCCOCCOCCOCCOCCOCCOCCOCCOCCOCCOCCOCCOCCOCCOCCNC(=O)CCOCCOCCOCCOCCNC(=O)O[C@H]5CC[C@@]6(C)C(=CC[C@H]7[C@@H]8CC[C@H]([C@H](C)CCCC(C)C)[C@@]8(C)CC[C@@H]76)C5)CC4)ccc3c2n1CC(C)(CO)CO [Compound 1, (3beta)-cholest-5-en-3-yl {91-[4-(3-{4-amino-2-butyl-1-[3-hydroxy-2-(hydroxymethyl)-2-methylpropyl]-1H-imidazo[4,5-c]quinolin-7-yl}propyl)piperazin-1-yl]-15,91-dioxo-3,6,9,12,19,22,25,28,31,34,37,40,43,46,49,52,55,58,61,64,67,70,73,76,79,82,85,88-octacosaoxa-16-azahennonacont-1-yl}carbamate]
- OPA geometric mean titers (GMT) (S. pneumoniae serotype 3; 0.1 μg S. pneumoniae serotype 3-CRM197 antigen with adjuvant (2 nmol; AlPO4 100 μg), IM weeks 0 and 3, sera week 5): 833
- OPA geometric mean titers compared with reference adjuvants (S. pneumoniae serotype 3; S. pneumoniae serotype 3 antigen, versus aluminum phosphate and free TLR 7/8 agonist): higher average OPA geometric mean titers than aluminum phosphate, as well as the free TLR 7/8 agonist molecule
- EC50 [1]: 1360 nM
- 50% neutralizing antibody titers (nAb) to RSV, GMT (RSV A strain (M37); Study 1): 7502
- 50% neutralizing antibody titers (nAb) to RSV, GMT (RSV A strain (M37); Study 2): 5362
- EC50 [2]: 122 nM
